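How tested: cells in 96-well plates exposed to compound for 48 hours at five concentrations. Abbreviation: GI50, concentration required for 50% inhibition of growth.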 Activity calls are given as the source filed them. Cut-off read from the data, not from the text of the source: active = GI50 up to about 1.1 µM and inactive = higher.
What was measured:
Assay in all cases: NCI tumour cell line growth inhibition, 48 h
SW-620 = test system: SW-620
IGROV-1 = test system: IGROV-1
SN12C = test system: SN12C
LOX IMVI = test system: LOX IMVI
OVCAR-4 = test system: OVCAR-4
HOP-62 = test system: HOP-62
HOP-18 = test system: HOP-18
SK-OV-3 = test system: SK-OV-3
OVCAR-8 = test system: OVCAR-8
SF-295 = test system: SF-295
UACC-62 = test system: UACC-62
COLO 205 = test system: COLO 205
HT-29 = test system: HT-29
RPMI-8226 = test system: RPMI-8226
SK-MEL-28 = test system: SK-MEL-28
HCC 2998 = test system: HCC 2998
TK-10 = test system: TK-10
HCT-116 = test system: HCT-116
SNB-78 = test system: SNB-78
CCRF-CEM = test system: CCRF-CEM
EKVX = test system: EKVX
DMS-273 = test system: DMS-273
HCT-15 = test system: HCT-15
A498 = test system: A498
OVCAR-5 = test system: OVCAR-5
LXFL 529 = test system: LXFL 529
HL-60 = test system: HL-60
786-0 = test system: 786-0
Malme-3M = test system: Malme-3M
A549 = test system: A549
SF-268 = test system: SF-268
SK-MEL-5 = test system: SK-MEL-5
SNB-75 = test system: SNB-75
MOLT-4 = test system: MOLT-4
RXF 631 = test system: RXF 631
NCI-H460 = test system: NCI-H460
HOP-92 = test system: HOP-92
UACC-257 = test system: UACC-257
NCI-H23 = test system: NCI-H23
SF-539 = test system: SF-539
KM-20L2 = test system: KM-20L2
XF498 = test system: XF498
DLD-1 = test system: DLD-1
K562 = test system: K562
RXF 393 = test system: RXF 393
KM12 = test system: KM12
M14 = test system: M14
OVCAR-3 = test system: OVCAR-3
U-251 = test system: U-251
SR = test system: SR
SNB-19 = test system: SNB-19
SK-MEL-2 = test system: SK-MEL-2
DMS-114 = test system: DMS-114
UO-31 = test system: UO-31
NCI-H522 = test system: NCI-H522
NCI-H226 = test system: NCI-H226
ACHN = test system: ACHN
CAKI-1 = test system: CAKI-1

`Cc1ccc(Oc2ccccc2N)cc1` was tested, and the GI50 (SW-620) was 45.9 µM (inactive), the GI50 (IGROV-1) was 50.4 µM (inactive) and the GI50 (SN12C) was 31.7 µM (inactive). The GI50 (LOX IMVI) was 23 µM (inactive), the GI50 (OVCAR-4) was 50.9 µM (inactive) and the GI50 (HOP-62) was 39 µM (inactive). For the same compound, the GI50 (HOP-18) was > 100 µM (inactive), the GI50 (SK-OV-3) was > 100 µM (inactive) and the GI50 (OVCAR-8) was 79.3 µM (inactive). The GI50 (SF-295) was 37.6 µM (inactive), the GI50 (UACC-62) was 60.1 µM (inactive) and the GI50 (COLO 205) was 6.07 µM (inactive). The GI50 (HT-29) was 37.2 µM (inactive), the GI50 (RPMI-8226) was 33.7 µM (inactive) and the GI50 (SK-MEL-28) was 18.2 µM (inactive). The GI50 (HCC 2998) was 15.4 µM (inactive), the GI50 (TK-10) was 88.1 µM (inactive) and the GI50 (HCT-116) was 9.51 µM (inactive). For the same compound, the GI50 (SNB-78) was 29 µM (inactive), the GI50 (CCRF-CEM) was 7.03 µM (inactive) and the GI50 (EKVX) was 37.5 µM (inactive). The GI50 (DMS-273) was 32 µM (inactive), the GI50 (HCT-15) was 19.5 µM and the GI50 (A498) was > 100 µM (inactive). For the same compound, the GI50 (OVCAR-5) was 40.6 µM (inactive), the GI50 (LXFL 529) was 15.7 µM (inactive) and the GI50 (HL-60) was 10.4 µM (inactive). The GI50 (786-0) was 21.2 µM (inactive), the GI50 (Malme-3M) was > 100 µM (inactive) and the GI50 (A549) was 36.9 µM (inactive). The GI50 (SF-268) was 46.1 µM (inactive), the GI50 (SK-MEL-5) was 7.89 µM (inactive) and the GI50 (SNB-75) was 16 µM (inactive). The GI50 (MOLT-4) was 15.4 µM (inactive), the GI50 (RXF 631) was > 100 µM (inactive) and the GI50 (NCI-H460) was 37.8 µM (inactive). For the same compound, the GI50 (HOP-92) was 37.8 µM (inactive), the GI50 (UACC-257) was 52.5 µM (inactive) and the GI50 (NCI-H23) was 39.9 µM (inactive). The GI50 (SF-539) was 16.7 µM (inactive), the GI50 (KM-20L2) was 12.7 µM (inactive) and the GI50 (XF498) was 17.8 µM (inactive). For the same compound, the GI50 (DLD-1) was 35 µM (inactive), the GI50 (K562) was 37.8 µM (inactive) and the GI50 (RXF 393) was 25.9 µM (inactive). For the same compound, the GI50 (KM12) was 33.3 µM (inactive), the GI50 (M14) was 33.5 µM (inactive) and the GI50 (OVCAR-3) was 15.8 µM (inactive). For the same compound, the GI50 (U-251) was 4.43 µM (inactive), the GI50 (SR) was 9.31 µM (inactive) and the GI50 (SNB-19) was 78.5 µM (inactive). The GI50 (SK-MEL-2) was 51.5 µM (inactive), the GI50 (DMS-114) was 17.4 µM (inactive) and the GI50 (UO-31) was 12.4 µM (inactive).

`O=C1c2ccccc2CC1C1(O)C(=O)Nc2c(Cl)cc(Cl)cc21` (stereo unspecified) was tested, and the GI50 (SW-620) was 35.2 µM (inactive), the GI50 (SN12C) was > 100 µM (inactive) and the GI50 (LOX IMVI) was 61.8 µM (inactive). For the same compound, the GI50 (OVCAR-4) was 92.5 µM (inactive), the GI50 (HOP-62) was 99.5 µM (inactive) and the GI50 (HOP-18) was 14.1 µM (inactive). For the same compound, the GI50 (SK-OV-3) was > 100 µM (inactive), the GI50 (OVCAR-8) was 39.4 µM (inactive) and the GI50 (SF-295) was 47.9 µM (inactive). For the same compound, the GI50 (COLO 205) was 75.2 µM (inactive), the GI50 (HT-29) was 67.8 µM (inactive) and the GI50 (RPMI-8226) was 20.8 µM (inactive). The GI50 (SK-MEL-28) was > 100 µM (inactive), the GI50 (HCC 2998) was > 100 µM (inactive) and the GI50 (TK-10) was > 100 µM (inactive). The GI50 (SNB-78) was > 100 µM (inactive), the GI50 (CCRF-CEM) was 26.6 µM (inactive) and the GI50 (EKVX) was 67 µM (inactive). For the same compound, the GI50 (DMS-273) was 68.4 µM (inactive), the GI50 (HCT-15) was 42.5 µM and the GI50 (OVCAR-5) was > 100 µM (inactive). The GI50 (LXFL 529) was 18.8 µM (inactive), the GI50 (HL-60) was 35.9 µM (inactive) and the GI50 (NCI-H522) was 17.9 µM (inactive). The GI50 (786-0) was > 100 µM (inactive), the GI50 (Malme-3M) was 79.6 µM (inactive) and the GI50 (A549) was 47.9 µM (inactive). The GI50 (SF-268) was 61 µM (inactive), the GI50 (SK-MEL-5) was 27.9 µM (inactive) and the GI50 (NCI-H226) was 44.2 µM (inactive). The GI50 (SNB-75) was 61.9 µM (inactive), the GI50 (MOLT-4) was 30.5 µM (inactive) and the GI50 (RXF 631) was > 100 µM (inactive). The GI50 (ACHN) was 64 µM (inactive), the GI50 (NCI-H460) was 99.8 µM (inactive) and the GI50 (HOP-92) was 53.3 µM (inactive). The GI50 (UACC-257) was 27 µM (inactive), the GI50 (NCI-H23) was 24.9 µM (inactive) and the GI50 (CAKI-1) was > 100 µM (inactive). For the same compound, the GI50 (KM-20L2) was > 100 µM (inactive), the GI50 (XF498) was 28.4 µM (inactive) and the GI50 (DLD-1) was 53.1 µM (inactive). For the same compound, the GI50 (K562) was 30.8 µM (inactive), the GI50 (RXF 393) was 23.6 µM (inactive) and the GI50 (KM12) was 47.2 µM (inactive). For the same compound, the GI50 (M14) was > 100 µM (inactive), the GI50 (OVCAR-3) was 53.5 µM (inactive) and the GI50 (U-251) was 54.8 µM (inactive). The GI50 (SNB-19) was 37.1 µM (inactive), the GI50 (SK-MEL-2) was 97.5 µM (inactive) and the GI50 (DMS-114) was 21.9 µM (inactive). The GI50 (UO-31) was 49.8 µM (inactive).

— ChEMBL document CHEMBL1201862, “PubChem BioAssay data set” (2004)
